Reference: ChEMBL document CHEMBL1201862, “PubChem BioAssay data set” (2004)
Active and inactive are the calls of the source.

Tests used:
cells [1] = test: cells
Major prion protein = Major prion protein (Homo sapiens, UniProt P04156); type: functional, cell-based
[2] = Trypanosoma cruzi growth suppression in host cells – NIH3T3 host cells, beta-gal luminescence, confirmation (AID 2044); type: functional, cell-based;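 further: intracellular parasites grown in NIH/3T3 mouse fibroblasts as host cells; luminescent beta-galactosidase reporter signal from transgenic T. cruzi replicating inside host cells; inhibitors lower the luminescence signal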
Cytochrome P450 2D6 = Cytochrome P450 2D6 (Homo sapiens, UniProt P10635);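 further: CYP2D6 member of a cytochrome P450 panel assay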
cells [3] = test: cells; remark: listed apart in the source
Cytochrome P450 3A4 = Cytochrome P450 3A4 (Homo sapiens, UniProt P08684);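 further: CYP3A4 tested as one member of a cytochrome P450 panel screen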
[4] = NIH3T3 cell viability loss – ATP luminescence, mouse fibroblasts, counter-screen, dose response (AID 2010); type: functional, cell-based;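 further: cells exposed to compound for about 90 hours before reading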
Prothrombin = Prothrombin (Homo sapiens, UniProt P00734); test: Thrombin 1536 HTS Dose Response Confirmation. [Related pubchem assays: 1046 (Thrombin 1536 HTS; hits were confirmed in this assay)]; type: functional
[5] = target: T1, Long-chain-fatty-acid--AMP ligase FadD28 (Mycobacterium tuberculosis, UniProt P9WQ59); test: Fluorescence polarization aasay to screen for inhibitors that compete for the binding of FadD28 to a bisubstrate Measured in Biochemical System Using Plate Reader - 2147-01_Inhibitor_Dose_CherryPick_Activity.; type: functional, Mycobacterium tuberculosis H37Rv
T1 sequence (P9WQ59 whole entry): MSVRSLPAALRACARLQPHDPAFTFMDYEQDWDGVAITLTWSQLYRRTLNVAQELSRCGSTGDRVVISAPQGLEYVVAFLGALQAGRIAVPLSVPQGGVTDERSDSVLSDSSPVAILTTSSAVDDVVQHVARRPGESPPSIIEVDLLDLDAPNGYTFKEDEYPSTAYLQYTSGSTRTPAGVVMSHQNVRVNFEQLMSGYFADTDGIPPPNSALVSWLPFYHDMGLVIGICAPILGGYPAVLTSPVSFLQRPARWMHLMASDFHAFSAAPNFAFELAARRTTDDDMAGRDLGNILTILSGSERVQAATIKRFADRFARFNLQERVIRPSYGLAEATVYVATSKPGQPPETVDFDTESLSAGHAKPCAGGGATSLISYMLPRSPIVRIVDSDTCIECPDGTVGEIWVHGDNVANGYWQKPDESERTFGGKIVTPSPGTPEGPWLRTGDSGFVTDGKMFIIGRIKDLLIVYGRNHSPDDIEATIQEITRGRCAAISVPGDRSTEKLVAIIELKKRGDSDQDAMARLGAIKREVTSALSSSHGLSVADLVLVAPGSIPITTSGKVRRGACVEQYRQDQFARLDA

cells [6] = type: functional, cell-based
cells [7] = type: functional, cell-based; remark: listed apart in the source
[8] = blockers of bursicon-stimulated LGR2 cAMP reporter – cell-based, HEK293, CRE-luciferase reporter, cherry pick, set 2, dose response (AID 743343); type: functional;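 further: transfected cells were stimulated with diluted bursicon conditioned medium after compound addition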
[9] = blockade of melanocortin 4 receptor signaling – cell-based, plate reader, cherry pick, counter-screen for LGR2 antagonist project, dose response (AID 743444); type: functional;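 further: transfected HEK 293 cells stimulated with alpha-MSH peptide; potency of inhibitors of the alpha-MSH evoked signal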
cells [10] = type: functional, cell-based; remark: listed apart in the source
[11] = viability loss in HEK293 cells – cell-based, plate reader, cherry-picked samples, cytotoxicity control, dose response (AID 743446); type: functional
[12] = target: T2, Nuclear receptor subfamily 0 group B member 1 (Homo sapiens, UniProt P51843); type: functional, cell-based;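 further: HEK293T cells transfected with SF-1 and DAX-1 plus StAR promoter luciferase reporter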
T2 sequence (P51843 whole entry): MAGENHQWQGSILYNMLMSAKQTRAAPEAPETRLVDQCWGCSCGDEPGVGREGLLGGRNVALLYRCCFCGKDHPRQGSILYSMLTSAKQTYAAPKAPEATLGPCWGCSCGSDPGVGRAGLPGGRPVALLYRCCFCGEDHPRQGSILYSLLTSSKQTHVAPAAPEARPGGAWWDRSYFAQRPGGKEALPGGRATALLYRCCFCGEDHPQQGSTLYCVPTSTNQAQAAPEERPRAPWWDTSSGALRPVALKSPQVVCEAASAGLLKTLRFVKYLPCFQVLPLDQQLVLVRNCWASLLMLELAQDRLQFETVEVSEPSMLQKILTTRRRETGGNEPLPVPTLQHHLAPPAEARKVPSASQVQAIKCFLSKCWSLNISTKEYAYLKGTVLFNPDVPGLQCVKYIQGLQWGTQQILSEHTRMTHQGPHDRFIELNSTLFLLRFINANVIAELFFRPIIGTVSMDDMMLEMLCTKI

[13] = target: T3, Heat shock factor protein 1 (Mus musculus, UniProt P38532); test: decrease of HSF1-responsive luciferase luminescence – cell-based, NIH3T3, dose retest, confirmation (AID 2382); type: functional;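 further: NIH3T3 fibroblasts with HSF1-driven luciferase reporter stressed by proteasome inhibitor MG132; luminescence from HSF1-driven luciferase expression after 8 hours of MG132 stress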
T3 sequence (P38532 whole entry): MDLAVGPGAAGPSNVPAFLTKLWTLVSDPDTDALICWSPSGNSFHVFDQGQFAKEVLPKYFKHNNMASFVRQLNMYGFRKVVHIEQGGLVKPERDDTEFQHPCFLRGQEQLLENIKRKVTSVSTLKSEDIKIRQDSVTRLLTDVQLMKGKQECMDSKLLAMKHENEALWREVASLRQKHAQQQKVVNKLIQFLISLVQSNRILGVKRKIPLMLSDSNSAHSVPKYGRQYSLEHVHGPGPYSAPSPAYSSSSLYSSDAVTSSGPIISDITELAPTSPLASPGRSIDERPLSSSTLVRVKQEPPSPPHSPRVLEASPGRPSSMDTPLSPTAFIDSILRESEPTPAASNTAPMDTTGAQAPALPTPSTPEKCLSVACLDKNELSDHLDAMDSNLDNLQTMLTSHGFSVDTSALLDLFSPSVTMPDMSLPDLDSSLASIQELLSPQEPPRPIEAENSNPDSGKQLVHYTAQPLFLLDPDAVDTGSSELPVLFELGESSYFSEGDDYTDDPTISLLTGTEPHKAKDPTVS

[14] = Dd2 malaria parasite growth inhibition potency – SYBR Green, dry powder samples, dose response (AID 1159566); type: functional, cell-based;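 further: potency for growth inhibition with lower SYBR green DNA signal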
[15] = growth inhibition of yeast DHODH-expressing 3D7 parasites – SYBR Green, dry powder samples, dose response (AID 1159570); type: functional, cell-based;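 further: parasite growth measured after 72 hours of compound exposure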
[16] = growth inhibition of PfATP4-mutant resistant parasites – NITD609-resistant line, SYBR Green, dry powder, dose response (AID 1159571); type: functional, cell-based;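 further: parasites synchronized at ring stage by sorbitol before testing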
[17] = P. falciparum Dd2 growth inhibitors, dose response, SYBR Green, cherry-picked samples (AID 1159567); type: functional, cell-based
[18] = toxicity to human HepG2 hepatoma cells – cell-based, plate reader, dry powder samples, cytotoxicity control, dose response (AID 1159569); type: functional;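 further: inhibitor potency with signal falling toward the positive control level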
[19] = HCT116 cell viability decrease, GSK3B pretreatment – CellTiter-Glo, IC50, dose response (AID 1117339); type: functional; details: HCT-116
[20] = Reduced DLD-1 viability, concentration-response, CellTiter-Glo luminescence (AID 1117352); type: functional
[21] = SNU-C1 cell viability reduction, dose response, CellTiter-Glo luminescence (AID 1117323); type: functional, cell-based
[22] = cytotoxicity toward HT-29 cells – cell-based, CellTiter-Glo luminescence, IC50, dose response (AID 1117330); type: functional
[23] = cytotoxicity toward Colo320 cells – cell-based, CellTiter-Glo luminescence, IC50, dose response (AID 1117334); type: functional; details: COLO 320
[24] = RKO cell viability reduction, dose response, CellTiter-Glo luminescence (AID 1117322); type: functional
[25] = cytotoxicity toward HCT116 cells – cell-based, CellTiter-Glo luminescence, IC50, dose response (AID 1117332); type: functional; details: HCT-116
[26] = CellTiter-Glo luminescence survival assay, SW480 colon tumor line, concentration-response curve, half-maximal inhibitory concentration (AID 1117338); type: functional
Protein Tat = target: T4, Protein Tat (Human immunodeficiency virus type 1 group M subtype B (isolate HXB2)(HIV-1), UniProt P04608); type: functional;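 further: tat binding to TAR RNA read out by fluorescence polarization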
T4 sequence (P04608 whole entry): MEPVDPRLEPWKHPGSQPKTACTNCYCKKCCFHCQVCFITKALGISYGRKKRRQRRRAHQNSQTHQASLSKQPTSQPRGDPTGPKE

Kallikrein-7 = Kallikrein-7 (Homo sapiens, UniProt P49862); test: Fluorescence Intensity-based biochemical primary high throughput dose response assay to identify activators of kallikrein-7 (K7) zymogen.
Escherichia coli = test: microbe, parasite or virus in culture
[27] = viability loss in THP-1 monocytes – THP-1 cells, cytotoxicity control for Vif-APOBEC3G degradation inhibitor project, dose response (AID 1117359); type: functional; details: THP-1
Large T antigen = Large T antigen (Simian virus 40, UniProt P03070); type: functional, Betapolyomavirus macacae;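 further: Confirmatory-stage PubChem screen for compounds that inhibit SV40 T antigen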

Compound: COc1ccc(-c2nc3c(C)cc(Br)cn3c2Cc2cccc(Cl)c2)cc1OC
- IC50 (cells [1]): > 138 µM (inactive)
- IC50 (Major prion protein): 7.52 µM (active)

Compound: Cc1ccc(CCN2CC(C(=O)NCCCN(C)Cc3ccccc3)CC2=O)cc1 (stereo unspecified)
- EC50 [2]: < 0.1 µM (active)
- AC50 (Cytochrome P450 2D6): 14.1 µM (inconclusive)
- EC50 (cells [3]): 0.033 µM (active)
- AC50 (Cytochrome P450 3A4): 31.6 µM (inconclusive)
- EC50 [4]: 15.8 µM (active)

Compound: Cc1cc(C)c2c3c(sc2n1)C(c1cccc(F)c1)C(C#N)=C(N)O3 (stereo unspecified)
- EC50 [2]: 0.191 µM (active)
- IC50 (Prothrombin): > 50 µM (not active)
- EC50 [4]: > 30 µM (not active)

Compound: COc1ccc(S(=O)(=O)N2CCOCC2)cc1NC(=O)CSc1ncnc2ccccc12
- IC50 (cells [1]): > 138 µM (inactive)
- IC50 (Major prion protein): 2.66 µM (active)

Compound: O=C(COC(=O)c1cccc(NS(=O)(=O)c2ccc(F)c(F)c2)c1)NC(=O)NC1CCCCC1
- AC50 [5]: 19.9 µM (active)

Compound: COc1ccc(N(C(=O)c2ccco2)S(=O)(=O)c2ccccc2)cc1
- IC50 (Prothrombin): 4.64 µM (active)

Compound: c1ccc(N/N=C(\Cc2ncc[nH]2)c2ccccc2)cc1
- IC50 (cells [6]): > 29.9 µM (inactive)
- EC50 (cells [7]): > 29.9 µM (inactive)

Compound: Cc1cc(C(=O)CSc2nnc(N)s2)c(C)n1Cc1cccs1
- AC50 [8]: 3.93 µM (active)
- AC50 [9]: 4.27 µM (active)
- IC50 (cells [10]): > 67.5 µM (inactive)
- AC50 [11]: > 52 µM (inactive)
- IC50 [12]: > 0.278 µM (active)

Compound: OC1CCN(Cc2cccc(Oc3ccccc3)c2)CC1
- EC50 [2]: < 0.1 µM (active)
- EC50 (cells [3]): 0.073 µM (active)
- EC50 [13]: > 195 µM (not active)
- EC50 [4]: > 30 µM (not active)

Compound: O=C(Nc1cccc(F)c1)N1CCCCN2[C@@H](CO)[C@H](c3ccc(C#Cc4cccnc4)cc3)[C@@H]2C1
- AC50 [14]: 0.368 µM (active)
- AC50 [15]: 0.247 µM (active)
- AC50 [16]: 0.425 µM (active)
- AC50 [17]: 0.606 µM (active)
- AC50 [18]: 28.4 µM (active)

Compound: COc1ccc(OC)c(C2NC(=O)N(C)C(C)=C2C(=O)OCc2ccccc2)c1 (stereo unspecified)
- IC50 (cells [1]): > 138 µM (inactive)
- IC50 (Major prion protein): 6.04 µM (active)

Compound: COCC(C)N(C(=O)CCl)c1c(C)csc1C (stereo unspecified)
- IC50 [19]: > 20 µM (inactive)
- IC50 [20]: > 20 µM (inactive)
- IC50 [21]: > 20 µM (inactive)
- IC50 [22]: > 20 µM (inactive)
- IC50 [23]: > 20 µM (inactive)
- IC50 [24]: > 20 µM (inactive)
- IC50 [25]: > 20 µM (inactive)
- IC50 [26]: > 20 µM (inactive)

Compound: CCCCCCCCCCCCCCCCC(C(=O)O)C(O)(CC(=O)O)C(=O)O (stereo unspecified)
- IC50 [19]: 4.34 µM (active)
- IC50 [20]: 4.28 µM (active)
- IC50 [21]: 1.36 µM (active)
- IC50 [22]: 4.1 µM (active)
- IC50 [23]: 1.36 µM (active)
- IC50 [24]: 3.48 µM (active)
- IC50 [25]: 8.68 µM (inactive)
- IC50 [26]: 1.2 µM (active)

Compound: CC1=C(C#N)C(=O)N(C)C(C)(C)C1
- IC50 (Protein Tat): > 100 µM (active)

Compound: Cc1oc2c(c(C)cc3oc(=O)c(CC(=O)N[C@@H](CCCNC(N)=O)C(=O)O)c(C)c32)c1C
- EC50 (Kallikrein-7): 69.3 µM (inactive)

Compound: COC(=O)c1ccc(COC(=O)CNS(=O)(=O)c2ccccc2)cc1
- IC50 (Prothrombin): > 50 µM (not active)

Compound: COc1ccc(NC(=O)c2ccc(S(=O)(=O)N3CC(C)CC(C)C3)cc2)cc1S(N)(=O)=O (stereo unspecified)
- EC50 (Kallikrein-7): 14.7 µM (inactive)

Compound: CCc1c(O)n(-c2ccccc2)c(SCC(=O)Nc2nc3ccccc3s2)nc1=O
- AC50 [5]: > 100 µM (inactive)

Compound: CN(C)C(=O)c1cccc(-c2cccc(-c3nc(C(=O)NC4CCCCC4)cc4c3[C@@H](CCO)N([S@+]([O-])C(C)(C)C)C4)c2)c1
- AC50 [14]: 0.232 µM (active)
- AC50 [15]: 0.806 µM (active)
- AC50 [16]: 0.484 µM (active)
- AC50 [17]: 1.62 µM (active)
- AC50 [18]: 31.4 µM (active)

Compound: O=c1c2cc(N3CCOCC3)ccc2[nH]c(=S)n1CCCN1CCCCC1
- EC50 (Kallikrein-7): 29.7 µM (inactive)

Compound: CN(C)CCN(C(=O)c1ccc(S(=O)(=O)N(C)C)cc1)c1nc2cc3c(cc2s1)OCCO3
- EC50 [2]: < 0.1 µM (active)
- EC50 (cells [3]): 0.069 µM (active)
- EC50 [4]: > 30 µM (not active)

Compound: Cc1c(NC(=O)CN2CCN(c3ccc(O)cc3)CC2)c(=O)n(-c2ccccc2)n1C
- AC50 (Escherichia coli): 38.1 µM (active)
- CC50 [27]: > 40 µM (active)
- IC50 (Large T antigen): 13.7 µM (active)
- IC50 (Protein Tat): > 100 µM (active)
